Legend:
[1] = test system: CCRF-CEM; assay: Cytotoxicity against human CCRF-CEM cells assessed as cell growth at 10^-6 M after 48 hrs by SRB assay relative to control; type: functional; settings: read-out: Activity
[2] = Cytotoxicity against human UACC257 cells assessed as cell growth at 10^-7 M after 48 hrs by SRB assay relative to control; type: functional; settings: UACC-257, 48 h, read-out: Activity
[3] = test system: RPMI-8226; assay: Cytotoxicity against human RPMI8226 cells assessed as cell growth at 10^-8 M after 48 hrs by SRB assay relative to control; type: functional; settings: RPMI-8226, 48 h, read-out: Activity
[4] = Cytotoxicity against human UACC257 cells assessed as cell growth at 10^-8 M after 48 hrs by SRB assay relative to control; type: functional; settings: UACC-257, 48 h, read-out: Activity
[5] = test system: RPMI-8226; assay: Cytotoxicity against human RPMI8226 cells assessed as cell growth at 10^-7 M after 48 hrs by SRB assay relative to control; type: functional; settings: RPMI-8226, 48 h, read-out: Activity
[6] = test system: RPMI-8226; assay: Cytotoxicity against human RPMI8226 cells assessed as cell growth at 10^-4 M after 48 hrs by SRB assay relative to control; type: functional; settings: RPMI-8226, 48 h, read-out: Activity
[7] = Cytotoxicity against human UACC257 cells assessed as cell growth at 10^-4 M after 48 hrs by SRB assay relative to control; type: functional; settings: UACC-257, 48 h, read-out: Activity
[8] = test system: RPMI-8226; assay: Cytotoxicity against human RPMI8226 cells assessed as cell growth at 10^-6 M after 48 hrs by SRB assay relative to control; type: functional; settings: RPMI-8226, 48 h, read-out: Activity
[9] = test system: CCRF-CEM; assay: Cytotoxicity against human CCRF-CEM cells assessed as cell growth at 10^-7 M after 48 hrs by SRB assay relative to control; type: functional; settings: read-out: Activity
[10] = test system: CCRF-CEM; assay: Cytotoxicity against human CCRF-CEM cells assessed as cell growth at 10^-8 M after 48 hrs by SRB assay relative to control; type: functional; settings: read-out: Activity
[11] = test system: RPMI-8226; assay: Cytotoxicity against human RPMI8226 cells after 48 hrs by SRB assay; type: functional; settings: RPMI-8226, 48 h; for CC50: read-out: LC50 (the source's name)
[12] = test system: CCRF-CEM; assay: Cytotoxicity against human CCRF-CEM cells assessed as cell growth at 10^-4 M after 48 hrs by SRB assay relative to control; type: functional; settings: read-out: Activity
[13] = Cytotoxicity against human UACC257 cells after 48 hrs by SRB assay; type: functional; settings: UACC-257, 48 h
[14] = Cytotoxicity against human UACC257 cells assessed as cell growth at 10^-6 M after 48 hrs by SRB assay relative to control; type: functional; settings: UACC-257, 48 h, read-out: Activity
[15] = test system: M14; assay: Cytotoxicity against human M14 cells after 48 hrs by SRB assay; type: functional; settings: M14, 48 h; for CC50: read-out: LC50 (the source's name)
[16] = target: Proto-oncogene tyrosine-protein kinase Src (Homo sapiens, UniProt P12931); assay: Inhibition of Src (unknown origin)
[17] = Cytotoxicity against human PC3 cells assessed as cell growth at 10^-7 M after 48 hrs by SRB assay relative to control; type: functional; settings: PC-3, 48 h, read-out: Activity
[18] = test system: NCI-H522; assay: Cytotoxicity against human NCI-H522 cells after 48 hrs by SRB assay; type: functional; settings: NCI-H522, 48 h; for CC50: read-out: LC50 (the source's name)
[19] = test system: SR; assay: Cytotoxicity against human SR cells assessed as cell growth at 10^-8 M after 48 hrs by SRB assay relative to control; type: functional; settings: read-out: Activity
[20] = test system: NCI-H522; assay: Cytotoxicity against human NCI-H522 cells assessed as cell growth at 10^-6 M after 48 hrs by SRB assay relative to control; type: functional; settings: NCI-H522, 48 h, read-out: Activity
[21] = test system: BT-549; assay: Cytotoxicity against human BT549 cells after 48 hrs by SRB assay; type: functional; settings: BT-549, 48 h; for CC50: read-out: LC50 (the source's name)
[22] = test system: DU-145; assay: Cytotoxicity against human DU145 cells assessed as cell growth at 10^-8 M after 48 hrs by SRB assay relative to control; type: functional; settings: DU-145, 48 h, read-out: Activity
[23] = test system: DU-145; assay: Cytotoxicity against human DU145 cells after 48 hrs by SRB assay; type: functional; settings: DU-145, 48 h
[24] = test system: SR; assay: Cytotoxicity against human SR cells assessed as cell growth at 10^-6 M after 48 hrs by SRB assay relative to control; type: functional; settings: read-out: Activity
[25] = test system: NCI-H522; assay: Cytotoxicity against human NCI-H522 cells assessed as cell growth at 10^-8 M after 48 hrs by SRB assay relative to control; type: functional; settings: NCI-H522, 48 h, read-out: Activity
[26] = test system: SR; assay: Cytotoxicity against human SR cells assessed as cell growth at 10^-4 M after 48 hrs by SRB assay relative to control; type: functional; settings: read-out: Activity
[27] = test system: K562; assay: Cytotoxicity against human K562 cells assessed as cell growth at 10^-4 M after 48 hrs by SRB assay relative to control; type: functional; settings: K562, 48 h, read-out: Activity
[28] = test system: BT-549; assay: Cytotoxicity against human BT549 cells assessed as cell growth at 10^-4 M after 48 hrs by SRB assay relative to control; type: functional; settings: BT-549, 48 h, read-out: Activity
[29] = test system: DU-145; assay: Cytotoxicity against human DU145 cells assessed as cell growth at 10^-4 M after 48 hrs by SRB assay relative to control; type: functional; settings: DU-145, 48 h, read-out: Activity
[30] = test system: BT-549; assay: Cytotoxicity against human BT549 cells assessed as cell growth at 10^-6 M after 48 hrs by SRB assay relative to control; type: functional; settings: BT-549, 48 h, read-out: Activity
[31] = test system: BT-549; assay: Cytotoxicity against human BT549 cells assessed as cell growth at 10^-8 M after 48 hrs by SRB assay relative to control; type: functional; settings: BT-549, 48 h, read-out: Activity
[32] = test system: SR; assay: Cytotoxicity against human SR cells after 48 hrs by SRB assay; type: functional; settings: for CC50: read-out: LC50 (the source's name)
[33] = test system: DU-145; assay: Cytotoxicity against human DU145 cells assessed as cell growth at 10^-6 M after 48 hrs by SRB assay relative to control; type: functional; settings: DU-145, 48 h, read-out: Activity

Sequence of Proto-oncogene tyrosine-protein kinase Src (P12931 2-536 limits assumed): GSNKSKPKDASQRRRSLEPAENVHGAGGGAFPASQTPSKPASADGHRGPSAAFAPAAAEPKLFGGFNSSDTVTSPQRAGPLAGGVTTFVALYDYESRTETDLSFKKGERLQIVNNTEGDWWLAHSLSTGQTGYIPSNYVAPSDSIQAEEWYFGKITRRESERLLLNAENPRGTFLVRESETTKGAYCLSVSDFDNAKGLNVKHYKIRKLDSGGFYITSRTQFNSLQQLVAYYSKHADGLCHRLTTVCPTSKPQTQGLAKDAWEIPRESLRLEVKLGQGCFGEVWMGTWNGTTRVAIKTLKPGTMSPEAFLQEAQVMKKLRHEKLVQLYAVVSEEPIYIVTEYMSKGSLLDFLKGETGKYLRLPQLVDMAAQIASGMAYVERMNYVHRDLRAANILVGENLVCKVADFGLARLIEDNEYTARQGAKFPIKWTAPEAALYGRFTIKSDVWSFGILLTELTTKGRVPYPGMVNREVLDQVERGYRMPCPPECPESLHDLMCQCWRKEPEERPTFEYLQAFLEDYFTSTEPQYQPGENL

**Q.** For `COc1ccc(CCN2COc3c([C@@H](C)CCC=C(C)C)ccc(C)c3C2)cc1OC`, which growth at 1 µM [1] is on record?
**A.** 93%

**Q.** And the growth at 0.1 µM [2]?
**A.** 91%

**Q.** What about the growth at 0.01 µM [3] of the same compound?
**A.** 93%

**Q.** And the growth at 0.01 µM [4]?
**A.** 80%

**Q.** And the growth at 0.1 µM [5]?
**A.** 93%

**Q.** And the growth at 100 µM [6]?
**A.** -28%

**Q.** And the growth at 100 µM [7]?
**A.** -84%

**Q.** And the growth at 1 µM [8]?
**A.** 78%

**Q.** What about the growth at 0.1 µM [9] of the same compound?
**A.** 98%

**Q.** What about the growth at 0.01 µM [10] of the same compound?
**A.** 96%

**Q.** What about the GI50 [11] of the same compound?
**A.** 2.09 µM

**Q.** What about the TGI [11] of the same compound?
**A.** 7.67 µM

**Q.** And the CC50 [11]?
**A.** > 100 µM

**Q.** What about the growth at 100 µM [12] of the same compound?
**A.** -29%

**Q.** And the GI50 [13]?
**A.** 28.3 nM

**Q.** And the TGI [13]?
**A.** 10.9 µM

**Q.** What about the CC50 ([13]; read-out: LC50 (the source's name)) of the same compound?
**A.** 40.8 µM

**Q.** And the growth at 1 µM [14]?
**A.** 91%

**Q.** And the GI50 [15]?
**A.** 1.69 µM

**Q.** What about the TGI [15] of the same compound?
**A.** 3.18 µM

**Q.** And the CC50 [15]?
**A.** 5.97 µM

**Q.** Which IC50 [16] does the source give for `CC(C)=CCC[C@H](C)c1ccc(C)cc1O` here?
**A.** 35.8 µM

**Q.** What does the source list for `CC(C)=CCC[C@H](C)c1ccc(C)c(CNCC2CCNCC2)c1O`?
**A.** growth at 0.1 µM [2]: 95%; growth at 0.1 µM [17]: 99%; GI50 [18]: 8.22 µM; TGI [18]: > 25 µM; CC50 [18]: > 25 µM; growth at 0.01 µM [19]: 83%; growth at 1 µM [20]: 104%; GI50 [21]: 9.72 µM; TGI [21]: > 25 µM; CC50 [21]: > 25 µM; growth at 0.01 µM [22]: 100%; GI50 [23]: 16.4 µM; LC50 [23]: > 25 µM; TGI [23]: > 25 µM; growth at 0.01 µM [4]: 93%; growth at 1 µM [24]: 87%; growth at 0.01 µM [25]: 98%; growth at 100 µM [7]: -8.3%; growth at 1 µM [14]: 80%; growth at 100 µM [26]: -50%; growth at 100 µM [27]: -58%; growth at 100 µM [28]: 22%; growth at 100 µM [29]: 41%; growth at 1 µM [30]: 81%; growth at 0.01 µM [31]: 98%; GI50 [32]: 3.71 µM; TGI [32]: 9.67 µM; CC50 [32]: > 25 µM; growth at 1 µM [33]: 100%

**Q.** Which growth at 0.1 µM [17] does the source give for `CC(C)=CCC[C@H](C)c1ccc(C)c2c1OCN(CC1CCNCC1)C2` here?
**A.** 100%

**Q.** And the GI50 [18]?
**A.** 13.5 µM

**Q.** And the TGI [18]?
**A.** 28.6 µM

**Q.** And the CC50 [18]?
**A.** 60.4 µM

**Q.** What about the growth at 0.01 µM [19] of the same compound?
**A.** 95%

**Q.** And the growth at 0.01 µM [3]?
**A.** 99%

**Q.** And the growth at 1 µM [20]?
**A.** 97%

**Q.** What about the GI50 [21] of the same compound?
**A.** 16.9 µM

**Q.** What about the TGI [21] of the same compound?
**A.** 41.6 µM

**Q.** What about the CC50 [21] of the same compound?
**A.** > 100 µM

**Q.** What about the growth at 0.01 µM [22] of the same compound?
**A.** 104%

**Q.** What about the GI50 [23] of the same compound?
**A.** 16.4 µM

**Q.** What about the LC50 [23] of the same compound?
**A.** 63.2 µM

**Q.** And the TGI [23]?
**A.** 32.2 µM

**Q.** What about the growth at 1 µM [24] of the same compound?
**A.** 91%

**Q.** And the growth at 0.01 µM [25]?
**A.** 87%

**Q.** What about the growth at 0.1 µM [5] of the same compound?
**A.** 102%

**Q.** What about the growth at 100 µM [6] of the same compound?
**A.** -38%

**Q.** And the growth at 1 µM [8]?
**A.** 110%

**Q.** What about the GI50 [11] of the same compound?
**A.** 7.25 µM

**Q.** And the TGI [11]?
**A.** 32.6 µM

**Q.** And the CC50 [11]?
**A.** > 100 µM

**Q.** And the growth at 100 µM [26]?
**A.** -42%

**Q.** And the growth at 100 µM [27]?
**A.** -50%

**Q.** What about the growth at 100 µM [28] of the same compound?
**A.** -49%

**Q.** And the growth at 100 µM [29]?
**A.** -94%

**Q.** What about the growth at 1 µM [30] of the same compound?
**A.** 104%

**Q.** What about the growth at 0.01 µM [31] of the same compound?
**A.** 94%

**Q.** What about the GI50 [15] of the same compound?
**A.** 10.2 µM

**Q.** And the TGI [15]?
**A.** 24.5 µM

**Q.** What about the CC50 [15] of the same compound?
**A.** 58.9 µM

**Q.** What about the GI50 [32] of the same compound?
**A.** 2.79 µM

**Q.** What about the TGI [32] of the same compound?
**A.** 9.83 µM

**Q.** And the CC50 [32]?
**A.** > 100 µM

**Q.** And the growth at 1 µM [33]?
**A.** 102%

Source: ChEMBL document CHEMBL3390836, “Mannich- and LedererManasse-based analogues of the natural product S-(+)-curcuphenol as cancer proliferation and migration inhibitors” (Medchemcomm, 2012)
